Experiments:
A549 cells [1] = assay: CCK-8 cell proliferation and cytotoxicity analysis of A549 cells; assay type: cell-based; conditions: 72 h
From the text: A CCK-8 kit was used to detect cell proliferation and cytotoxicity. Its working principle is as follows: In the presence of an electron coupling reagent, WST-8 (chemical name: 2-(2-methoxy-4-nitrophenyl)-3-(4-nitrophenyl)-5-(2,4-disulfophenyl)-2H-tetrazolium monosodium salt) can be reduced by mitochondrial dehydrogenases to produce a highly water-soluble orange-yellow formazan product. The intensity of the color is proportional to cell proliferation and inversely proportional to cytotoxicity. […] The OD value measured at a wavelength of 450 nm via a microplate reader can indirectly reflect the number of viable cells.
The CCK-8 assay was used to detect the viability of A549 cells after treatment with different concentrations of BLM and GlyT1 inhibitor for 72 h. […] In this example, BLM, which maintained the viability of A549 cells at approximately 80%, was selected for stimulation, and A549 cells were stimulated with 25 μM BLM to establish the cell model. […] At a concentration of 380 nM, the viability of A549 cells was greater than 50%. To obtain stable experimental results more easily, 190 nM GLYT1 IN was selected as the treatment concentration in subsequent studies.

[2] = system: bleomycin-induced pulmonary fibrosis; assay: Bleomycin-induced pulmonary fibrosis in mice; assay type: in vivo, C57BL/6J male mice; conditions: for collagen deposition in lung tissue (Masson staining): 1 mg/kg and 5 mg/kg BLM; for body weight: inhibitor 0.79 mg/kg per day by gavage for 14 days from day 14 after modeling
Description: The dosage was 0.79 mg/kg per day, and the administration route was intragastric gavage. When used, the drug was dissolved in H2O containing 0.3% Tween 80.
C57BL/6J male mice (8-10 weeks old, weighing 24-25 g) were purchased from Beijing Huafukang Biotechnology Co., Ltd. The mice were housed in a specific pathogen-free (SPF) environment, with the room temperature maintained at 20-25° C. and the humidity controlled at 50-60%. The mice were fed normally, and the light was adjusted to a 12 h light/dark cycle. Before modeling, the mice were acclimatized to the corresponding environment for 1 week. All animal experiments were conducted in compliance with the animal care regulations and guidelines of Tianjin Medical University and were approved by the Animal Committee of Tianjin Medical University.
1. Prediluted bleomycin was prepared, and doses of 1 mg/kg and 5 mg/kg were administered on the basis of the body weights of the mice.
7. The mouse's tongue was gently pulled to one side toward the mandible with sterile padded forceps to expose the vocal cords; then, the pipette tip loaded with bleomycin was lowered to the back of the oral cavity, and the liquid was delivered through the vocal cords during inhalation. The sounds of wheezing were waited to confirm that the liquid was delivered into the trachea. For animals in the control group, an equal volume of sterile PBS was used instead of the bleomycin solution.
10. The mice were monitored daily until they were euthanized for analysis. RG1678 or water containing 0.3% Tween 80 was added to the mice by gavage every day according to their groupings.
11. When the experiment reached the appropriate time point, the mice were euthanized, their eyeballs were removed for blood collection, and then the mice were dissected to collect samples.
Mice in different groups were generated according to the abovementioned methods. The mice in the control group were given normal saline, while the mice in the experimental groups were given bleomycin at different concentrations. Fourteen days after modeling, the mice were intragastrically administered either ddH2O containing 0.3% Tween 80 or RG1678 prepared in ddH2O containing 0.3% Tween 80 via continuous gavage for 14 days; the specific experimental conditions are shown in Table 1.
1. Bleomycin stock solution (10 mg/mL): First, 10 mg of bleomycin was weighed and dissolved in 1 mL of 0.9% sodium chloride. The instillation volume for each mouse was calculated on the basis of its body weight, with the instillation volume per mouse being approximately 50 μL. The stock solution was diluted to 0.5 mg/mL and 2.5 mg/mL for subsequent instillation according to the different groups (1 mg/kg and 5 mg/kg).
3. RG1678 (0.79 mg/mL): An appropriate amount of RG1678 was dissolved in ddH2O containing 0.3% Tween 80 to prepare a stock working solution of 0.79 mg/mL. The intragastric administration volume was then calculated on the basis of the mouse's body weight, with approximately 200 μL per mouse. Before use, the stock solution was diluted to a working concentration of […].
The body weights of the mice were measured before modeling, and their body weights were monitored daily during the experiment to observe changes. A comparison was made between the body weight at the end of the experiment and that at the beginning.
To further observe lung tissue damage in mice in detail, pathological detection was performed on the mouse lung tissues in this example.
Masson staining was performed on mouse lung tissue sections. Masson staining is an experimental method used to detect the secretion and deposition levels of collagen fibers in tissues. After treatment with different staining solutions, the overall background of the tissue section appeared red, the cell nuclei were black, and the collagen fibers were blue. The content of collagen fibers can be evaluated on the basis of the depth of the blue color and the scope of its distribution. […]

A549 cells [3] = assay: Western blot of pulmonary fibrosis-related indicators in the in vitro bleomycin-induced pulmonary fibrosis model; assay type: cell-based; conditions: 25 μM BLM + 190 nM GLYT1 IN for 72 h; compared with BLM group
Description: A bleomycin-induced pulmonary fibrosis model was established in vitro, with simultaneous intervention via a GLYT1 inhibitor.
For the in vitro bleomycin-induced pulmonary fibrosis model, A549 cells were divided into […] treatment groups: the NC group (control group: treated with normal saline), the BLM group (bleomycin-treated group: treated with 25 μM BLM for 72 h), and the BLM+GLYT1 IN group (bleomycin and glycine transporter 1 inhibitor-treated group: treated with 25 μM BLM for 72 h and 190 nM GLYT1 IN for 72 h).
Western blotting was used to detect the expression levels of pulmonary fibrosis-related indicators: collagen type I alpha 1 (col1α1), collagen type III alpha 1 (col3α1), collagen type IV alpha 1 (col4α1), E-cadherin (E-Cad), and α-SMA proteins.

[4] = intervention initiated 14 days after BLM modeling, lung paraffin sections
[5] = treatment for 14 days from day 14 after modeling, compared with BLM group

Row | Compound | viability of A549 cells (A549 cells [1]; 10 μM bleomycin) | viability of A549 cells (A549 cells [1]; 25 μM BLM) | viability of A549 cells with increasing concentrations (A549 cells [1]; increasing concentrations) | viability of A549 cells (A549 cells [1]; human, 380 nM) | collagen deposition in lung tissue (Masson staining) ([2]; compared with BLM group, listed as GLYT1 IN) | collagen deposition in lung tissue (Masson staining) ([2]; compared with BLM group, listed as GlyT1 inhibitor 1) | body weight ([2]; BLM 1 or 5 mg/kg, compared with BLM group) | body weight ([2]; BLM 1 or 5 mg/kg, compared with BLM group, listed as GLYT1 IN) | change in lung weight/body weight ratio ([2]; BLM 1 or 5 mg/kg, inhibitor by gavage for 14 days from day 14 after modeling, compared with BLM group (**P<0.01, ***P<0.001)) | general condition changes after modeling (delayed responses, huddling, trembling, cyanosis, decreased food intake, wrinkled skin) ([2]; BLM+RG1678 group compared with BLM group) | BLM-induced lung tissue consolidation (HE staining) [2, 4] | degree of fibrosis (HE staining) [2, 4] | collagen deposition in lung tissue (Sirius Red staining) ([2]; intervention initiated 14 days after modeling, compared with BLM stimulation) | deposition of type I collagen in lung tissue (immunohistochemistry) [2, 5] | deposition of type III collagen in lung tissue (immunohistochemistry) [2, 5] | E-cadherin protein expression level (A549 cells [3]) | col1α1 protein expression level (A549 cells [3]) | col3α1 protein expression level (A549 cells [3]) | col4α1 protein expression level (A549 cells [3]) | α-SMA protein expression level (A549 cells [3])
1 | bleomycin | significantly affected | approximately 80% | decreased |  |  |  |  |  |  |  |  |  |  |  |  |  |  |  |  | 
2 | C[C@H](Oc1ccc(S(C)(=O)=O)cc1C(=O)N1CCN(c2ncc(C(F)(F)F)cc2F)CC1)C(F)(F)F [RG1678] |  |  |  | greater than 50% | not obvious | significantly reduce | less pronounced decrease | significantly greater | significantly alleviated | milder degrees | reduced | significantly alleviated | significantly reduced | significantly lower | significantly lower | significantly increased | significantly decreased | significantly decreased | significantly decreased | significantly decreased

Reference: patent publication US20260263450A1, “USE OF GLYT1 INHIBITOR IN TREATMENT OF ORGAN FIBROSIS” (TIANJIN MEDICAL UNIVERSITY, priority 2023, published 2026)
